Test results from patent publication US5859061A, “Bis-sulfonamides hydroxamic acids as MMP inhibitors” (Pharmacia & Upjohn Company, priority 1998, dated 1999).

How the values were obtained:
Type in all cases: biochemical
Settings in all cases: in vitro, pH 7.5, room temperature, 15 min preincubation, substrate 1-3 hours
stromelysin = stromelysin (Homo sapiens, UniProt P08254); assay: particle concentration fluorescence assay, inhibition of stromelysin
Method: (§1) Inhibitory activity is evaluated in one or more of the MMP enzymes (stromelysin, gelatinase, and collagenase) in vitro using particle concentration fluorescence assay. An inhibitor binds to MMP enzymes which prevents the degradation of a substrate by stromelysin, gelatinase, or collagenase. The substrate has attached to it a fluorescein and a biotin moiety. The intact substrate then binds to an avidin-coated particle via the biotin moiety. Once the particle is washed and dried, a fluorescent signal is generated since the fluorescent group is attached to the particle. Without an inhibitor present, the substrate is degraded by MMP enzymes and the fluorescein group is removed, therefore, no fluorescent signal can be detected. Testing compounds are dissolved in DMSO to the desired concentration, then the solutions are diluted to 1:5 with MMP buffer (50 mM Tris-HCl, pH 7.5; 150 mM NaCl; 0.02% NaN3). Serial two-fold dilutions of each compound are prepared. A concentrated, activated enzyme solution is transferred into each plate of the testing compounds, and the mixture is incubated at room temperature for 15 minutes. Thawed MMP substrate is then added into all plates, and the plates are incubated in the dark for 1-3 hours at room temperature. At this point, the substrate mixture is mixed with 0.1% avidin-coated polystyrene particles. After 15 minutes, the fluorescence values are measured following filtration and washing of the beads. Ki values are then calculated.

collagenase = assay: particle concentration fluorescence assay, inhibition of collagenase
Method: as §1

gelatinase = assay: particle concentration fluorescence assay, inhibition of gelatinase
Method: as §1

stromelysin, sequence (P08254 100-477): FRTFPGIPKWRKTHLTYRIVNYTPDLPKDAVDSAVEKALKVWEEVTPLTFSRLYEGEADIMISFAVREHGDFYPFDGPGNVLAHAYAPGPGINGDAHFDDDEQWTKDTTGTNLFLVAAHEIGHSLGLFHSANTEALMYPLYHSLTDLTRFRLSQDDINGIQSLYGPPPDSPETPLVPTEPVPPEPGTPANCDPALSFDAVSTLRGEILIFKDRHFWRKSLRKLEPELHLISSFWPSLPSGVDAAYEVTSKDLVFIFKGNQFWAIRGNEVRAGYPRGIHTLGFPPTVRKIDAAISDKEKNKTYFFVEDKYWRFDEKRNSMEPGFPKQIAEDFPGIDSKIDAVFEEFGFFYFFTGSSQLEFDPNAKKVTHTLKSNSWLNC

Q: What does the source list for `Cc1ccc(S(=O)(=O)NCC(NS(=O)(=O)c2ccc(C)cc2)C(=O)NO)cc1` (stereo not drawn) [Example 4, N-Hydroxy-2,3-bis-[[4-methylphenylsulfonyl]amino] propionamide]?
A: Ki (stromelysin): 844 nM; Ki (collagenase): 449 nM; Ki (gelatinase): 20 nM

Q: For `Cc1ccc(S(=O)(=O)NCCCC(NS(=O)(=O)c2ccc(C)cc2)C(=O)NO)cc1` (stereo not drawn) [Example 7, N-Hydroxy-2,5-bis-[[4-methylphenylsulfonyl]amino] valeramide], which Ki (stromelysin) is on record?
A: Its Ki is 107 nM.

Q: And the Ki (collagenase)?
A: The Ki was 570 nM.

Q: And the Ki (gelatinase)?
A: The Ki was 5.1 nM.

Q: What does the source list for `Cc1ccc(S(=O)(=O)NCC[C@H](NS(=O)(=O)c2ccc(C)cc2)C(=O)NO)cc1` [Example 3, (S)-N-Hydroxy-2,4-bis-[[4-methylphenylsulfonyl]amino] butanamide]?
A: Ki (stromelysin): 48 nM; Ki (collagenase): 840 nM; Ki (gelatinase): 35 nM

Q: With `O=C(NO)C(CCNS(=O)(=O)c1ccc(F)cc1)NS(=O)(=O)c1ccc(F)cc1` (stereo not drawn) [Example 5, N-Hydroxy-2,4-bis-[[4-fluorophenylsulfonyl]amino] butanamide] as the compound, how does the Ki (stromelysin) read?
A: Its Ki is 45 nM.

Q: What about the Ki (collagenase) of the same compound?
A: Its Ki is 60 nM.

Q: And the Ki (gelatinase)?
A: The Ki was 16 nM.

Q: `Cc1ccc(S(=O)(=O)NCCC(NS(=O)(=O)c2ccc(C)cc2)C(=O)NO)cc1` (stereo not drawn) [Example 1, N-Hydroxy-2,4-bis-[[4-methylphenylsulfonyl]amino] butanamide] was tested. Which Ki (stromelysin) did it give?
A: The Ki was 2.4 nM.

Q: And the Ki (collagenase)?
A: Its Ki is 48 nM.

Q: What about the Ki (gelatinase) of the same compound?
A: Its Ki is 0.94 nM.

Q: Which results are given for `Cc1ccc(S(=O)(=O)NCC[C@@H](NS(=O)(=O)c2ccc(C)cc2)C(=O)NO)cc1` [Example 2, (R)-N-Hydroxy-2,4-bis-[[4-methylphenylsulfonyl]amino] butanamide]?
A: Ki (stromelysin): 3.2 nM; Ki (collagenase): 43 nM; Ki (gelatinase): 1.3 nM

Q: Which results are given for `COc1ccc(S(=O)(=O)NCCC(NS(=O)(=O)c2ccc(OC)cc2)C(=O)NO)cc1` (stereo not drawn) [Example 8, N-Hydroxy-2,4-bis-[[4-methoxyphenylsulfonyl]amino] butanamide]?
A: Ki (stromelysin): 1.2 nM; Ki (collagenase): 93 nM; Ki (gelatinase): 0.7 nM

Q: How did the Ki (stromelysin) turn out when `O=C(NO)[C@H](CCNS(=O)(=O)c1ccccc1)NS(=O)(=O)c1ccccc1` [Example 6, (S)-N-Hydroxy-2,4-bis-[[phenylsulfonyl]amino] butanamide] was run?
A: Its Ki is 2000 nM.

Q: What about the Ki (collagenase) of the same compound?
A: The Ki was 3000 nM.

Q: What about the Ki (gelatinase) of the same compound?
A: The Ki was 284 nM.
